# Reference: patent US20200179312A1, “ANALOGUES OF CYSTEAMINE AS THERAPEUTIC AGENTS FOR CYSTIC FIBROSIS” (I.E.R.F.C. EUROPEAN INSTITUTE FOR CYSTIC FIBROSIS RESEARCH, priority 2018, published 2020)
# Legend:
# [1] = target: CFTR (Homo sapiens, UniProt P13569, DEL508-508); experiment: Immunoblot detection of CFTR in nasal primary cells; format: cell-based; set-up: Freshly isolated brushed nasal epithelial cells were collected by nasal brushing; endogenous in cells; host or cells: primary nasal epithelial cells from F508del-homozygous CF patients
# CFTR (Homo sapiens, UniProt P13569, DEL508-508), sequence (P13569 with tags, fused parts or gaps DEL508-508): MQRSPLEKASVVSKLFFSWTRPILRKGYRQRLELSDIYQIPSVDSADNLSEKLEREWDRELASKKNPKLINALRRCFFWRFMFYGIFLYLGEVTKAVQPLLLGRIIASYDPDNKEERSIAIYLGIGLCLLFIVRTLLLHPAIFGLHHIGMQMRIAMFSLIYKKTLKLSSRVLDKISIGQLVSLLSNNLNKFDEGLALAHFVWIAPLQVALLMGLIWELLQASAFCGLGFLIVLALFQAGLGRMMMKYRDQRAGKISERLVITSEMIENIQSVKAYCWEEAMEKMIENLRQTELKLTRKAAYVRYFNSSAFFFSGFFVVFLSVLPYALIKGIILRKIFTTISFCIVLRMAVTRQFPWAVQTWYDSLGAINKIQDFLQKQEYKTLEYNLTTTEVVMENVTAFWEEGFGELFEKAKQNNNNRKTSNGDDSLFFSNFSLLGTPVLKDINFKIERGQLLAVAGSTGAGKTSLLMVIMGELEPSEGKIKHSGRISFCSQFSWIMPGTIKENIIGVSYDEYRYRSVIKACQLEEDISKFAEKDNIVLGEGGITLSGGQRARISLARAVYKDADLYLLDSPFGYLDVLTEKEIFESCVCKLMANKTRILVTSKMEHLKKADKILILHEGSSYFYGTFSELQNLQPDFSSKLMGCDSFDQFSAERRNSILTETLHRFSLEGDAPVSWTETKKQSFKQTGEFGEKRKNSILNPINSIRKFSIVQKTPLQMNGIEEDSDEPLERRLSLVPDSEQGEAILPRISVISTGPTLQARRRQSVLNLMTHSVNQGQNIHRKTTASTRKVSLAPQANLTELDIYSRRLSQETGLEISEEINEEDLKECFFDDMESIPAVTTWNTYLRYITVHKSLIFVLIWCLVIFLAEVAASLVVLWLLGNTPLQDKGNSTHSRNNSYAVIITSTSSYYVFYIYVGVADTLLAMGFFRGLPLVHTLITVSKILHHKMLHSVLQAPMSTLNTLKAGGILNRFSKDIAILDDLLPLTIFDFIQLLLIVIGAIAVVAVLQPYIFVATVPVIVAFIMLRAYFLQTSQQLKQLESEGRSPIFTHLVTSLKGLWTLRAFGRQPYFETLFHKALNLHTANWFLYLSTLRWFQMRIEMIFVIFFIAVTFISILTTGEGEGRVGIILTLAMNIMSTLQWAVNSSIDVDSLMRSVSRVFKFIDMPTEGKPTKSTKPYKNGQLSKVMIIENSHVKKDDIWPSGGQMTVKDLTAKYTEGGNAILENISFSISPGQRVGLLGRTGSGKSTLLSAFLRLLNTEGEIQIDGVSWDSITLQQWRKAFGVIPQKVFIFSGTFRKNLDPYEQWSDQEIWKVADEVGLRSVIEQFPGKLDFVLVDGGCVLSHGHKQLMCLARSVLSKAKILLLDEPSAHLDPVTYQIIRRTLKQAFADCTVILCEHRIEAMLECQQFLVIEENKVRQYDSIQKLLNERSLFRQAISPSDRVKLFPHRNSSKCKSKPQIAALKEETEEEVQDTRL
# From the text: (§1) Freshly isolated brushed nasal epithelial cells were collected by nasal brushing, as previously described (21, 21) from 10 F508del-CFTR homozygous CF patients and from 5 non-CF healthy volunteers recruited from staff at the same time points. Both patients and healthy volunteers gave written informed consent. […] Brushes with cells were immediately transferred into RPMI 1640 medium (Invitrogen) containing 1% penicillin-streptomycin (Lonza, 17-602E), in 15-ml sterilized tubes. The tubes were incubated at 37° C. for 2 h on a thermo shaker, to remove all cell from brushes; the brushes were then removed and the cells centrifuged at 800×g (2000 rpm) for 20 min. The supernatant fractions were discarded and the cell pellet treated with […] of trypsin-versene (EDTA) solution (Lonza, 17-161) for 4 min at 37° C. to disaggregate possible cell clusters. Trypsin solution was inactivated by adding 3 ml of serum-free Bronchial Epithelial cell Growth Medium BEGM (Clonetics, Lonza, CC3170). After centrifugation at 800×g (2000 rpm) for 10 min, cells were placed in CELLC T 25 flasks (Sarstedt Ltd, CS300) with 10 ml of BEGM medium. Nonspecific epithelial cells were removed during the daily cell washing and medium changes.
# (§2) The proteins of cell lines lysates or lung or small intestine homogenates, obtained from treated and untreated cells or mice, were quantified by a Bio-Rad protein assay to ensure equal protein loading before immunoblot analysis. Fifty micrograms of proteins were loaded in each lane. Antibodies against SQSTM1, (Sigma Aldrich,P0067) 1:1000, BECN1 (Abcam, ab58878), 1:1000, CFTR clone CF3 (Abcam, ab2784) 1:1000 or anti-CFTR antibody 660 1:1000, Phospho-p44/42 MAPK (Erk1/2) (Thr202/Tyr204) (Cell Signaling Technology, #91101) 1:1000, TG2 (CUB7402, NEOMARKER) 1:1000 were used. Normalization was performed by probing the membrane with anti-β-actin (Cell Signaling, #4970) 1:1000 or anti-α-tubulin (Cell Signaling Technology, 2148) 1:1000.
# [2] = tested on: BECN1, SQSTM1/p62, (phospho)p42/44 MAPK; experiment: Immunoblot of autophagy and inflammation markers in nasal primary cells; format: cell-based, human; details: 0.1 μM
# From the text: as §1, §2
# [3] = target: T1, CFTR (Mus musculus, UniProt P26361, DEL508-508); experiment: Ussing chamber CFTR function in CftrF508del mice; format: in vivo
# T1 construct: the Ussing chamber experiments (on small intestinal tissues); from tissue; host or cells: small intestine (Ussing chamber); lung and small intestine homogenates (immunoblot) of CftrF508del mice
# T1 sequence (P26361 with tags, fused parts or gaps DEL508-508): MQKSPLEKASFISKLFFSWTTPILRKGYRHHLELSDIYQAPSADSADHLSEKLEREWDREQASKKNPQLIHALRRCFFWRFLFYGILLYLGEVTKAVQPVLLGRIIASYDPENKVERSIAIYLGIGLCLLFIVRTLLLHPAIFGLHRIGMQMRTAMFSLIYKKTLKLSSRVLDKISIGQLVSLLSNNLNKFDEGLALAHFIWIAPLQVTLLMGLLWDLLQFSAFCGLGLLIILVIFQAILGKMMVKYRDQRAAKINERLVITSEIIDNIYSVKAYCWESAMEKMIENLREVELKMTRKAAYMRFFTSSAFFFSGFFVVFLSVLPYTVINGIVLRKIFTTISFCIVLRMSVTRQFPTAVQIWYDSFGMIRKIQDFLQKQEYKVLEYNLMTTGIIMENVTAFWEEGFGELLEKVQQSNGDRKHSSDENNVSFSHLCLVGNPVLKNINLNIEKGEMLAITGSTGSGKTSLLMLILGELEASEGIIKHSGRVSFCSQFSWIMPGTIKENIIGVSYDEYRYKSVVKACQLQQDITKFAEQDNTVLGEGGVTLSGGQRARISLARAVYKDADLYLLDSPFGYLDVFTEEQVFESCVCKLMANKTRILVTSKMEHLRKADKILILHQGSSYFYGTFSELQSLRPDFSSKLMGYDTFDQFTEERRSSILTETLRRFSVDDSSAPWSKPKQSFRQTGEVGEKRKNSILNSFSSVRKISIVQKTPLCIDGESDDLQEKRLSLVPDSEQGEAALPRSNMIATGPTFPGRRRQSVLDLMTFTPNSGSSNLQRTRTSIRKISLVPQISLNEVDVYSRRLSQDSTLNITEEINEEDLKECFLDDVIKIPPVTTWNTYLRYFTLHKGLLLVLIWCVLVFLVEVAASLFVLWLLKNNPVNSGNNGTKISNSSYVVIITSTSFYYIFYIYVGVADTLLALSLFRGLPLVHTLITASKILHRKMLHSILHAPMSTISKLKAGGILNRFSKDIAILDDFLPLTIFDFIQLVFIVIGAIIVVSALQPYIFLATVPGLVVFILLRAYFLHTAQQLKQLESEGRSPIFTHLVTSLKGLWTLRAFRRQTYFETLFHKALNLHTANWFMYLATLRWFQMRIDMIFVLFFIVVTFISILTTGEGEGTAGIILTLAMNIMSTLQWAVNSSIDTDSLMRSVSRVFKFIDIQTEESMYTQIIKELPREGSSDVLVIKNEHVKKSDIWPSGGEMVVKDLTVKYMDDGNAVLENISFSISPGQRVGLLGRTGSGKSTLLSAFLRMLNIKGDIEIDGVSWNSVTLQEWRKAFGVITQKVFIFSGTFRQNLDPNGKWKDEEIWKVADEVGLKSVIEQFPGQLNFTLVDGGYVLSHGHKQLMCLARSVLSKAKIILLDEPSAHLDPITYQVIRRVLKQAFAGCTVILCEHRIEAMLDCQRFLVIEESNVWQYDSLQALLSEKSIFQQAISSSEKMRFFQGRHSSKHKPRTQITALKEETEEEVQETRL
# Method: Driven by the positive outcome of the cell lines (immortalized and primary nasal cell) experiments, we next investigated the possibility that IE1 could rescue the CFTR protein and function as well as re-establish the autophagy pathway in CF mice model. To test this hypothesis, we used F508del-Cftr homozygous (CftrF508del\F508del) mice and control mice (Cftr WT). CftrF508del mice were administered intraperitoneally (i.p.) for 5 d with cysteamine or different concentrations of IE1 (FIG. 7). […] Next, CftrF508del mice were administered intraperitoneally (i.p.) for 5 d with cysteamine or with 3 different concentrations of IE1 (0.05M, 0.025M or 0.0125M) followed by 10 d or 20 d of vehicle only (FIG. 9).
# CF mice homozygous for the delF508-CFTR mutation (abbreviated CftrF508del) in the 129/FVB outbred background (CftrtmlEUR, F508del, FVB/129) were obtained from Erasmus Medical Center Rotterdam, The Netherlands (CF coordinated action program EU FP6 LSHM-CT-2005-018932). These studies and procedures were approved by the local Ethics Committee for Animal Welfare (IACUC No 713). Young adult CF mice and their wild-type (wt) littermates were housed in static isolator cages at the animal care specific pathogen-free facility of Charles River (Calco, Italy). […]
# [4] = target: F508delCFTR (Homo sapiens, UniProt P13569, DEL508-508); experiment: SPQ assay in CFBE41o- cells transfected with F508delCFTR; format: cell-based; set-up: expressed in transfected cells; host or cells: CFBE41o- cells
# F508delCFTR, sequence (P13569 with tags, fused parts or gaps DEL508-508): as the sequence (P13569 with tags, fused parts or gaps DEL508-508) above
# Method: The compounds of formula I have marked effects on CFTR function. A representative number of compounds of formula I (Compounds IE1-IE4; Table I) were tested in comparison to cysteamine and amifostine through SPQ assay in F508delCFTR homozygous bronchial epithelial cell lines (CFBE41o-) transfected with F508delCFTR (FIG. 1) and in ex vivo in nasal cells collected by nasal brushing from CF patients (FIGS. 2A and B). Cell lines experiments. CFBE41l- and 16HBE14o-cells were cultured in Minimum Essential Medium (MEM) with Earle's salt, 200 mM L-Glutamine, 10% FBS and penicillin/streptomycin. CFBE41o-cells were transfected with AF508-CFTR at 37° C. and incubated for 18 h with cysteamine (250 μM) or different concentration of IE1.
# [5] = tested on: BECN1, (phospho)p42/44 MAPK; experiment: Immunoblot of whole homogenates from intestinal and lung tissues of CftrF508del mice; format: in vivo
# From the text: CF mice homozygous for the delF508-CFTR mutation (abbreviated CftrF508del) in the 129/FVB outbred background (CftrtmlEUR, F508del, FVB/129) were obtained from Erasmus Medical Center Rotterdam, The Netherlands (CF coordinated action program EU FP6 LSHM-CT-2005-018932). These studies and procedures were approved by the local Ethics Committee for Animal Welfare (IACUC No 713). Young adult CF mice and their wild-type (wt) littermates were housed in static isolator cages at the animal care specific pathogen-free facility of Charles River (Calco, Italy). CftrF508del mice were treated with daily intraperitoneal injections of cysteamine (100 μl of 0.05 M in PBS) (Sigma Aldrich, M9768) or IE1 (100 μl of 0.075-0.05-0.025-0.0125 M, in PBS) for 5 d or with cysteamine (5 d) or IE1 different concentrations followed by 10 d or 20 d of PBS alone (n=5 mice per group) (19,20).
# The proteins of cell lines lysates or lung or small intestine homogenates, obtained from treated and untreated cells or mice, were quantified by a Bio-Rad protein assay to ensure equal protein loading before immunoblot analysis. Fifty micrograms of proteins were loaded in each lane. […]
compound,measurement,setting,value
"NCCCS [IE1, 3-aminopropane-1-thiol]",PM-resident CFTR protein,[1]; 0.1 μM,a sizeable fraction of the channel resided at the PM
same,PM-resident CFTR protein after washout,"[1]; 0.1 μM, 24 h of washout",maintained
same,PM-resident CFTR protein after washout,[1]; 48 h of washout,decreases
same,PM-resident CFTR protein after washout with EGCG added,"[1]; 48 h of washout, EGCG added",completely maintained
same,BECN1 level,[2],able to restore BECN1
same,Inflammation biomarkers (phospho)p42/44 MAPK,[2],decrease
same,p62 levels,[2],reduce p62 levels
same,Effect on (phospho)p42/44 MAPK after 48 h in presence of EGCG,"[2]; 48 h, EGCG",maintained
same,Effect on BECN1 and p62 after 48 h with EGCG addition,"[2]; 48 h, EGCG addition",preserved
same,Effect on (phospho)p42/44 MAPK after 48 h,[2]; after 48 h,completely lost
same,Effect on BECN1 and p62 after 48 h,[2]; after 48 h,disappears
same,"Sustaining CFTR function after wash out, compared with cysteamine","[3]; i.p. 5 d at 0.05M, 0.025M or 0.0125M, then 20 d of vehicle only",more effective than cysteamine
same,"Rescue of CFTR function (Ussing chamber, small intestinal tissues)","[3]; i.p. for 5 d, IE1 concentration 0.05 to 0.00125",highly effective
same,Concentration lower than cysteamine for equal restoration of CFTR function,[4]; 0.1 μM vs 250 μM,more than 2500 fold
same,% Function vs 16HBE,"[4]; 0.1 μM, CFBE41o- transfected with F508delCFTR",72%
same,CFTR function after wash out with EGCG added,"[4]; 48 h after wash out, epigallocatechin gallate added, CFBE cells",effect is preserved
same,CFTR function after wash out,"[4]; 48 h after wash out, CFBE cells",loses its efficacy
same,CFTR function after wash out,"[4]; up to 24 h after wash out, CFBE cells",able to maintain CFTR function
same,BECN1 in whole homogenates,[5],able to restore BECN1
same,Biomarkers (phospho)p42/44 MAPK in whole homogenates,[5],decrease biomarkers (phospho)p42/44 MAPK
